Reference: ChEMBL document CHEMBL1909046, “DrugMatrix in vitro pharmacology data”

How the values were obtained:
[1] = target: T1, 5-hydroxytryptamine receptor 1A (Rattus norvegicus, UniProt P19327); assay type: cell membranes, CHO-K1, Membrane; conditions: cho-k1; further: in other assays of this panel Not Active means under 50% inhibition at 10 µM
T1 sequence (P19327 whole entry): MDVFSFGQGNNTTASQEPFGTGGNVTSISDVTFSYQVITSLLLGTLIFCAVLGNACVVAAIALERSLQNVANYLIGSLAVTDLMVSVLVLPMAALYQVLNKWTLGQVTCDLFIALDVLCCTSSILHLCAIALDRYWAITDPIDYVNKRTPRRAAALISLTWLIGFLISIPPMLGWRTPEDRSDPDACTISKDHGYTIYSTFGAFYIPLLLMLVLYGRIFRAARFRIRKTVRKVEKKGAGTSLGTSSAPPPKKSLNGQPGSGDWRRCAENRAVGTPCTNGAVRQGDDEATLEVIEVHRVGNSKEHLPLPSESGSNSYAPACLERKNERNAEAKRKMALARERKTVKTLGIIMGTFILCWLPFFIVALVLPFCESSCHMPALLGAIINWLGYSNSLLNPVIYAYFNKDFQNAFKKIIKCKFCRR

Substance-K receptor = target: T2, Substance-K receptor (Homo sapiens, UniProt P21452); assay type: cell membranes, CHO, Membrane; conditions: cho; further: in other assays of this panel Not Active means under 50% inhibition at 10 µM
T2 sequence (P21452 whole entry): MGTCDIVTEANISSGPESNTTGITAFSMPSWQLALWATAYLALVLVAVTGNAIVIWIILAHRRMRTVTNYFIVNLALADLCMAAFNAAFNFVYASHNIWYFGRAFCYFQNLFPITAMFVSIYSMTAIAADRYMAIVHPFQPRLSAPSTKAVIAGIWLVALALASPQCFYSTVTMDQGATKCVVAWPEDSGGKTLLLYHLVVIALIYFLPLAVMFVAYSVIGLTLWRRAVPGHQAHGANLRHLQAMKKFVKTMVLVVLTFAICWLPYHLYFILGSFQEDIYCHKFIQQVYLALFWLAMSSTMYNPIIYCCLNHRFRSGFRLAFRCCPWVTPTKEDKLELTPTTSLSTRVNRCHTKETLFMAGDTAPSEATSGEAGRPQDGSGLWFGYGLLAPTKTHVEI

[2] = target: Sigma non-opioid intracellular receptor 1 (Homo sapiens, UniProt Q99720); assay: DRUGMATRIX: Sigma1 radioligand binding (ligand: [3H] Haloperidol); assay type: cell membranes, Jurkat, Membrane; conditions: jurkat; Not Active = under 50% inhibition at 10 µM
[3] = DRUGMATRIX: Phosphodiesterase PDE3 enzyme inhibition (substrate: [3H]cAMP + cAMP); assay type: tissue-based, Homo sapiens; conditions: platelet; Not Active = under 50% inhibition at 10 µM
[4] = target: 5-hydroxytryptamine receptor 6 (Homo sapiens, UniProt P50406); assay type: cell membranes, HeLa, Membrane; conditions: hela; further: in other assays of this panel Not Active means under 50% inhibition at 10 µM
[5] = DRUGMATRIX: Calcium Channel Type L, Benzothiazepine radioligand binding (ligand: [3H] Diltiazem); assay type: cell membranes, Rattus norvegicus, Wistar, Brain, Membrane; conditions: Not Active = under 50% inhibition at 10 µM
[6] = DRUGMATRIX: Calcium Channel Type L, Phenylalkylamine radioligand binding (ligand: [3H] (-)-Desmethoxyverapamil (D-888)); assay type: cell membranes, Rattus norvegicus, Wistar, Brain, Membrane; conditions: Not Active = under 50% inhibition at 10 µM
[7] = DRUGMATRIX: Phosphodiesterase PDE4 enzyme inhibition (substrate: [3H]cAMP + cAMP); conditions: u-937; Not Active = under 50% inhibition at 10 µM
[8] = target: T3, Polyunsaturated fatty acid lipoxygenase ALOX15 (Oryctolagus cuniculus, UniProt P12530); assay: biochemical; assay type: tissue-based, Reticulocytes; conditions: reticulocytes;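 further: inhibition of 15-lipoxygenase enzyme activity measured with linoleic acid as the substrate; in other assays of this panel Not Active means under 50% inhibition at 10 µM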
T3 sequence (P12530 whole entry): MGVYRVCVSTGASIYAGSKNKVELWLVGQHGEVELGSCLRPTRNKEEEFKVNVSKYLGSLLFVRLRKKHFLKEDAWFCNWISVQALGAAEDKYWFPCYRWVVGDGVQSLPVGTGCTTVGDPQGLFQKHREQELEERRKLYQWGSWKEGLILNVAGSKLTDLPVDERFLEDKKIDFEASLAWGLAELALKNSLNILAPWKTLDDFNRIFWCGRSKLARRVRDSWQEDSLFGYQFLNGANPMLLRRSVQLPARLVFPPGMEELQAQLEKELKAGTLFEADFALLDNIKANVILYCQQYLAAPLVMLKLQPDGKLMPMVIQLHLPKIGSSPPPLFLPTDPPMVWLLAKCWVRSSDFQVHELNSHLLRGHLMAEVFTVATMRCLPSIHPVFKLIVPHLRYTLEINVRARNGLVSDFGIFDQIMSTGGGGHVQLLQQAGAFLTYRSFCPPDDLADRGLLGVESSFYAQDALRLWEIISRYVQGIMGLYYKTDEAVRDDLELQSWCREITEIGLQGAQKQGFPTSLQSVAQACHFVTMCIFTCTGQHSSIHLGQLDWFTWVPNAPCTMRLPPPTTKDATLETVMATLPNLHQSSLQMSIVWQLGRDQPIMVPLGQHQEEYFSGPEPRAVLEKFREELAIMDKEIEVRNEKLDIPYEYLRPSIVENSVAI

Glycine receptor = Glycine receptor (Rattus norvegicus, UniProt P22771+P24524+P07727+P20781); assay type: cell membranes, Wistar, Spinal cord, Membrane; further: in other assays of this panel Not Active means under 50% inhibition at 10 µM
[9] = target: Tyrosine-protein kinase Lck (Homo sapiens, UniProt P06239); assay: DRUGMATRIX: Protein Tyrosine Kinase, LCK enzyme inhibition (substrate: Poly(Glu:Tyr)); assay type: cell-based, Insect cells; conditions: insect cells; Not Active = under 50% inhibition at 10 µM
[10] = DRUGMATRIX: Sigma2 radioligand binding (ligand: [3H] Ifenprodil); assay type: cell membranes, Rattus norvegicus, Wistar, Brain, Membrane; conditions: Not Active = under 50% inhibition at 10 µM
[11] = DRUGMATRIX: Glutamate, NMDA, Phencyclidine radioligand binding (ligand: [3H] TCP); assay type: cell membranes, Rattus norvegicus, Wistar, Cerebral cortex, Membrane; conditions: Not Active = under 50% inhibition at 10 µM
[12] = DRUGMATRIX: Purinergic P2X radioligand binding (ligand: [3H] alpha, beta-Methylene-ATP); assay type: cell membranes, Oryctolagus cuniculus, New Zealand albino, Urinary bladder, Membrane; conditions: Not Active = under 50% inhibition at 10 µM

Sigma non-opioid intracellular receptor 1, sequence (Q99720 whole entry): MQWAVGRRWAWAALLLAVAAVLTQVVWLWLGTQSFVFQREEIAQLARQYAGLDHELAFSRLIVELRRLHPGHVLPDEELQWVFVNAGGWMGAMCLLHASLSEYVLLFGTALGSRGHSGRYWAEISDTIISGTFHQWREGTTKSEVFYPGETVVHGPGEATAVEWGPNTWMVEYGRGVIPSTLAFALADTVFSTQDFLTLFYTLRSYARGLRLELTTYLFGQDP
5-hydroxytryptamine receptor 6, sequence (P50406 whole entry): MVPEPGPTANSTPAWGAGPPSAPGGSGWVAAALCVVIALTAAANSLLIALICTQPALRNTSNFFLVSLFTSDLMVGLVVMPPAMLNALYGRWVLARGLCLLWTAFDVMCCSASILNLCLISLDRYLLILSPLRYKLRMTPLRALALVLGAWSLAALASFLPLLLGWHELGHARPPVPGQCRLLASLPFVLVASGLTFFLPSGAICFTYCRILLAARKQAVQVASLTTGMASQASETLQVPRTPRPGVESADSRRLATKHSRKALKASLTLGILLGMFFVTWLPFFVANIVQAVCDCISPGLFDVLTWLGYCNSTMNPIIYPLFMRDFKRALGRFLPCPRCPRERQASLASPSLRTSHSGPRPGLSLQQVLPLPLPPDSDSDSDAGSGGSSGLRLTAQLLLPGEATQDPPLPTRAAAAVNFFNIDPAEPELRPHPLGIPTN
Tyrosine-protein kinase Lck, sequence (P06239 whole entry): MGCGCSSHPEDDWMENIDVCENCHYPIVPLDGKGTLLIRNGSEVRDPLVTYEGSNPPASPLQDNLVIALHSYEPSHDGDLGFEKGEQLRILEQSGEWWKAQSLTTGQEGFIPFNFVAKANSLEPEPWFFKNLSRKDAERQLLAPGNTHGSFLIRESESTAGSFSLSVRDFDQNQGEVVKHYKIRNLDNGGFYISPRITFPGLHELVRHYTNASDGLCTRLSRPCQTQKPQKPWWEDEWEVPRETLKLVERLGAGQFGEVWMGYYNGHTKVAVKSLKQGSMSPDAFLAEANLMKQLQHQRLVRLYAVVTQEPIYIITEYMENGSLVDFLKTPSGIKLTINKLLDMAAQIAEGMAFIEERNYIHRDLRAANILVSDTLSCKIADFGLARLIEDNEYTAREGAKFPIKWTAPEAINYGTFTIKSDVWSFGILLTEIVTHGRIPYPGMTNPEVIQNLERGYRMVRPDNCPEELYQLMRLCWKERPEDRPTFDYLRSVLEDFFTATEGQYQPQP

COC(=O)c1ccc(O)cc1 [METHYLPARABEN]
Not Active: IC50 [1] | IC50 (Substance-K receptor) | IC50 [2] | IC50 [3] | Ki [3] | IC50 [4] | IC50 [5] | Ki [5] | IC50 [6] | Ki [6] | IC50 [7] | Ki [7] | IC50 [8] | IC50 (Glycine receptor) | IC50 [9] | IC50 [10] | Ki [10] | IC50 [11] | Ki [11] | IC50 [12] | Ki [12]

Cc1ncc([N+](=O)[O-])n1CC(C)O (stereo not drawn) [SECNIDAZOLE]
Not Active: IC50 [1] | IC50 (Substance-K receptor) | IC50 [2] | IC50 [3] | Ki [3] | IC50 [4] | IC50 [5] | Ki [5] | IC50 [6] | Ki [6] | IC50 [7] | Ki [7] | IC50 [8] | IC50 (Glycine receptor) | IC50 [9] | IC50 [10] | Ki [10] | IC50 [11] | Ki [11] | IC50 [12] | Ki [12]

CCC[C@@H]1C[C@@H](C(=O)N[C@@H]([C@H]2O[C@H](SC)[C@H](O)[C@@H](O)[C@H]2O)[C@@H](C)O)N(C)C1 [LINCOMYCIN]
Not Active: IC50 [1] | IC50 (Substance-K receptor) | IC50 [2] | IC50 [3] | Ki [3] | IC50 [4] | IC50 [5] | Ki [5] | IC50 [6] | Ki [6] | IC50 [7] | Ki [7] | IC50 [8] | IC50 (Glycine receptor) | IC50 [9] | IC50 [10] | Ki [10] | IC50 [11] | Ki [11] | IC50 [12] | Ki [12]
